Laboratory results published in US20040228831A1, “Polymeric conjugates for tissue activated drug delivery” (priority 2003, published 2004).

Key:
murine melanoma B16-F10 = experiment: Anti-tumor efficacy in mice bearing s.c. murine melanoma B16-F10, daily i.v. x5; type: in vivo; conditions: 2 mg/kg (free drug's MTD), daily i.v. for 5 days
Method: (§1) Polymeric prodrug conjugate, conjugate, 6, a doxorubicin (Dox)-containing construct in which the drug moiety is attached to the PEG backbone via a cathepsin B-cleavable linker peptide was tested in mice bearing murine melanoma B16-F10 implanted s.c. Mice were treated by daily i.v. (tail vein) injection for 5 consecutive days, beginning on the day when tumors became palpable. The conjugate was studied at the maximum tolerated dose (MTD) of the free drug, 2 mg Dox/kg (equimolar comparison), and at the conjugate's MTD, 6 mg Dox/kg (equitoxic comparison). The conjugate, 6, or Dox administered at the free drug's MTD (2 mg/kg) had minimal anti-tumor effect (30% tumor reduction, 3.4 days delay in reaching 500 mg). But at the conjugate's MTD of 6 mg Dox/kg there was substantial activity (FIG. 1A). The conjugate reduced tumor by 81% and extended the time to reach 500 mg to 6.5 days. Therefore as a polymeric prodrug conjugate it was possible to increase the tolerated drug dose by a factor of 3, and this increase permitted the achievement of substantially greater anti-tumor efficacy.

[1] = Maximum tolerated dose of Dox and conjugate in mice, daily i.v. x5; type: in vivo; conditions: daily i.v. injection for 5 consecutive days
Method: as §1

[2] = Maximum tolerated dose of Pt construct and oxaliplatin; type: in vivo, C57B1/6 mice; conditions: mice
Description: Plasmin labile construct, 26, bearing an aspartic acid-platinum-diamino-cyclohexane (DACH) chelate was studied using C57B1/6 mice bearing s.c. B16-F10 murine melanoma (FIG. 1C). […] Thus, a substantially larger dose of Pt was safely delivered by the polymeric prodrug construct.

Compound | delay in reaching 500 mg (murine melanoma B16-F10) | tumor reduction (murine melanoma B16-F10) | maximum tolerated dose (MTD) [1] | maximum tolerated dose (MTD) [2]
COc1cccc2c1C(=O)c1c(O)c3c(c(O)c1C2=O)C[C@@](O)(C(=O)CO)C[C@@H]3O[C@H]1C[C@H](N)[C@H](O)[C@H](C)O1 [Dox, doxorubicin] | 3.4 days | 30% | 2 mg Dox/kg | 
O=C1[O][Pt]2([NH][C@@H]3CCCC[C@H]3[NH]2)[O]C1=O [oxaliplatin] |  |  |  | 10 mg Pt/kg
